Experimental data taken from patent US20230000842A1, “METHODS OF TREATING CARTILAGE DISORDERS THROUGH INHIBITION OF CLK AND DYRK” (SAMUMED, LLC, priority 2019, published 2023).

Assays:
CLK2 kinase = CLK2 kinase (Homo sapiens, UniProt P49760); assay: CLK2 kinase activity assay (Z-lyte FRET); assay type: biochemical; details: Z-lyte Ser/Thr 6 peptide, 60 μM ATP, 1 h at room temperature;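 further: FRET read-out as coumarin to fluorescein emission ratio, unphosphorylated peptide as 0% and phosphorylated peptide as 100% controls, duplicate reactions, non-linear regression fit of dose-response curves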
CLK2 kinase, sequence (P49760 whole entry): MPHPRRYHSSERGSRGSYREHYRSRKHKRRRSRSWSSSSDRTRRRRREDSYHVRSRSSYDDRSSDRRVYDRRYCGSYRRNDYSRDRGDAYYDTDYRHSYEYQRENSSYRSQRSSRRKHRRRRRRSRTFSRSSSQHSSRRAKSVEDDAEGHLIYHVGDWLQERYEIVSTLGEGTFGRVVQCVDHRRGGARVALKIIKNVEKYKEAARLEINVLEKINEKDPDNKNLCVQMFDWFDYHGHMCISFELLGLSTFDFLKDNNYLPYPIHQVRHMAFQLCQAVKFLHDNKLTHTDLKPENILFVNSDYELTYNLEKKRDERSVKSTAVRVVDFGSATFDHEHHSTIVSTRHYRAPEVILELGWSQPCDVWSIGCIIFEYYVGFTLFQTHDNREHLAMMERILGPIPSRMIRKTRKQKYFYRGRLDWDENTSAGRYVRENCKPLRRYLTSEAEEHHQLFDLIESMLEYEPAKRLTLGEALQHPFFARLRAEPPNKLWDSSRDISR

CLK3 kinase = CLK3 kinase (Homo sapiens, UniProt P49761); assay: CLK3 kinase activity assay (Z-lyte FRET); assay type: biochemical; details: Z-lyte Ser/Thr 18 peptide, 156 μM ATP, 1 h at room temperature;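 further: kinase activity read as coumarin/fluorescein emission ratio by FRET, unphosphorylated peptide as 0% and phosphorylated peptide as 100% control, values from non-linear regression of dose-response curves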
CLK3 kinase, sequence (P49761 whole entry): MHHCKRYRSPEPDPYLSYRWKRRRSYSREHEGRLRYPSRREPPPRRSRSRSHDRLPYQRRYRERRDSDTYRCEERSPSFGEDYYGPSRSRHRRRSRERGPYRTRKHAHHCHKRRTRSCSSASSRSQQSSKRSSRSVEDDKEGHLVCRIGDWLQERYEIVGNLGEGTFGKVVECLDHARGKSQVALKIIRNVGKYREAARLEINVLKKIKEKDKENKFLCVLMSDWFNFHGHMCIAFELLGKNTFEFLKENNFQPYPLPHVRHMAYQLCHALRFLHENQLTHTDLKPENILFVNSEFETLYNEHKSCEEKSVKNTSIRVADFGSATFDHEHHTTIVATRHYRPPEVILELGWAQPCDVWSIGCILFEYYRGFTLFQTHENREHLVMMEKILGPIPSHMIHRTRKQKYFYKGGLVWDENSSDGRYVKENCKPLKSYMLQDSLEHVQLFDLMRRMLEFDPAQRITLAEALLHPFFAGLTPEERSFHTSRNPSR

[1] = tested on: primary human mesenchymal stem cells (hMSCs); assay: Chondrogenesis screening using primary human mesenchymal stem cells; assay type: cell-based; details: Homo sapiens, Mesenchymal stem cells, hMSC chondrogenesis; for EC50: concentration required to induce 50% levels of chondrogenesis with TGF-β3 as positive control, read-out: Conc (nM) of 50% TGF-β3 activity; for Emax: maximum activity relative to TGF-β3 (10 ng/mL) positive control, read-out: Max. Activity as % TGF-β3 activity
Outline: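 Derived values are EC50 for 50% chondrogenesis, maximal activity and the dose giving it. These come from nodule area in passage 3–6 primary hMSCs, expressed as fold change over the mean of 3 same-plate DMSO wells, 2–3 replicates per concentration. TGF-β3 served as positive control.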

[2] = tested on: Wnt pathway activity (SW480 colon carcinoma cells stably expressing the Sp5-Luc reporter); assay: Wnt pathway activity screening assay (Sp5-Luc reporter gene assay); details: Homo sapiens, SW480, Table 4; SW480 cells stably expressing Sp5-Luc reporter, 10-point dose-response from 10 μM, 36 to 48 hours
Protocol: The screening assay for Wnt pathway activity is described as follows.
SW480 colon carcinoma cells were transduced with a lentiviral vector expressing luciferase with a human Sp5 promoter consisting of a sequence of eight TCF/LEF binding sites. […] These stably transduced SW480 cells were expanded in cell culture and used for all further screening activities. Each compound was dissolved in DMSO as a 10 mM stock and used to prepare compound source plates. Serial dilution (1:3, 10-point dose-response curves starting from 10 μM) and compound transfer was performed using the ECHO 550 (Labcyte, Sunnyvale, Calif.) into 384-well white solid bottom assay plates (Greiner Bio-One) with appropriate DMSO backfill for a final DMSO concentration of 0.1%. […] Following incubation, 15 μl of BriteLite Plus luminescence reagent (Perkin Elmer) was added to each well of the 384-well assay plates. The plates were placed on an orbital shaker for 2 min and then luminescence was quantified using the Envision (Perkin Elmer) plate reader.

SMILES | EC50 (CLK2 kinase) | EC50 (CLK3 kinase) | EC50 [1] | EC50 [2] | Emax [1]
CCCC(=O)Nc1cncc(-c2cc3c(-c4cc5c(-c6cc(F)cc(NCCN(C)C)c6)ccnc5[nH]4)n[nH]c3cn2)c1 [compound 512] | 14 nM | 94 nM | 10 nM | > 10000 nM | 162%
CN(C)CCNc1cc(F)cc(-c2ccnc3[nH]c(-c4n[nH]c5cnc(-c6cncc(NC(=O)C(C)(C)C)c6)cc45)cc23)c1 [compound 513] | 6 nM | 49 nM | 10 nM | 386 nM | 87.3%
CN(C)CCNc1cc(F)cc(-c2ccnc3[nH]c(-c4n[nH]c5ccc(-c6cncc(CN7CCCCC7)c6)nc45)cc23)c1 [compound 514] | 4 nM | 49 nM | – | 1270 nM | 48.5%
CN(C)CCNc1cc(F)cc(-c2cccc3[nH]c(-c4n[nH]c5ccc(-c6cncnc6)nc45)cc23)c1 [compound 516] | 5 nM | 63 nM | 10 nM | 420 nM | 181%
CC(C)C(=O)Nc1cncc(-c2cc3c(-c4cc5c(-c6cc(F)cc(CNS(C)(=O)=O)c6)nccc5[nH]4)n[nH]c3cn2)c1 [compound 520] | 3 nM | 75 nM | 30 nM | > 10000 nM | 79.5%
CCCCC(=O)Nc1cncc(-c2cc3c(-c4cc5c(-c6cc(F)cc(CNS(C)(=O)=O)c6)nccc5[nH]4)n[nH]c3cn2)c1 [compound 521] | 9 nM | 776 nM | 10 nM | > 10000 nM | 111%
CC(C)CC(=O)Nc1cncc(-c2cnc3[nH]nc(-c4cc5c(-c6cc(F)cc(CNS(C)(=O)=O)c6)nccc5[nH]4)c3c2)c1 [compound 522] | 8 nM | 48 nM | 300 nM | 1510 nM | 52%

The next lines start with results.

EC50 (CLK2 kinase) | EC50 (CLK3 kinase) | EC50 [1] | EC50 [2] | SMILES | Emax [1]
10 nM | 60 nM | 100 nM | 473 nM | O=C(Nc1cncc(-c2cnc3[nH]nc(-c4cc5c(-c6cccs6)nccc5[nH]4)c3c2)c1)C1CCC1 [compound 507] | 82.2%
7 nM | 68 nM | – | 578 nM | c1ccc(CNCc2cncc(-c3ccc4[nH]nc(-c5cc6c(-c7cccs7)cncc6[nH]5)c4c3)c2)cc1 [compound 508] | 57.4%
6 nM | 140 nM | 10 nM | 3680 nM | c1csc(-c2nccc3[nH]c(-c4n[nH]c5cnc(-c6cncc(CN7CCCCC7)c6)cc45)cc23)c1 [compound 509] | 59%
16 nM | 1870 nM | 300 nM | 3550 nM | c1csc(-c2ccnc3[nH]c(-c4n[nH]c5ccc(-c6cncc(OC7CCNCC7)c6)nc45)cc23)c1 [compound 510] | 51.4%
6 nM | 50 nM | 100 nM | 407 nM | CN(C)CCNc1cc(F)cc(-c2cccc3[nH]c(-c4n[nH]c5cnc(-c6cncc(N)c6)cc45)cc23)c1 [compound 511] | 180%
5 nM | 109 nM | 10 nM | 405 nM | CN(C)CCNc1cc(F)cc(-c2cccc3[nH]c(-c4n[nH]c5cnc(-c6cncc(O)c6)cc45)cc23)c1 [compound 515] | 66.4%
8 nM | 216 nM | – | 244 nM | CCC(=O)Nc1cncc(-c2ccc3[nH]nc(-c4cc5c(-c6cc(F)cc(CNS(C)(=O)=O)c6)cncc5[nH]4)c3c2)c1 [compound 517] | 29.4%
7 nM | 39 nM | – | 1680 nM | CCCC(=O)Nc1cncc(-c2cnc3[nH]nc(-c4cc5c(-c6cc(F)cc(CNS(C)(=O)=O)c6)cncc5[nH]4)c3c2)c1 [compound 518] | 36.7%
18 nM | 236 nM | – | > 10000 nM | CC(C)C(=O)Nc1cncc(-c2cnc3[nH]nc(-c4cc5c(-c6cc(F)cc(CNS(C)(=O)=O)c6)cncc5[nH]4)c3c2)c1 [compound 519] | 59.6%
